Laboratory results reported in patent US8778303B2, “99mTc-labeled 19 amino acid containing peptide for use as phosphatidylethanolamine binding molecular probe and radiopharmaceutical” (The Medical College of Wisconsin, Inc., priority 2008, dated 2014).
“Also recorded” adds a separate entry of the source.

What was measured:
[1] = system: apoptotic Jurkat lymphocytes; assay: In vitro binding tests, apoptotic vs viable cells; details: for binding to apoptotic cells: apoptotic Jurkat lymphocytes
Procedure: In vitro binding tests. The PtdE-binding activity of ^99mTc-HYNIC-Duramycin was examined using binding assays in vitro. A good source of exposed PtdE was apoptotic Jurkat lymphocytes incubated with 5 μM final concentration of camptothecin at 37° C. in a humidified atmosphere with 5% CO2. Untreated control or treated cells were harvested by centrifugation at 800 g for 5 min and re-suspended at 2×10^6 per ml. Radiolabeled Duramycin or Duramycin^1 (inactivated Duramycin) was added to each ml of cells at a final concentration of 100 nM, and the binding was allowed to proceed for 5 min at room temperature. The mixture was then loaded onto a layer of Histopaque. After centrifugation at 800 g for 5 min, cell pellet was collected at the bottom of the tube below the Histopaque layer, whereas the media that contained the non-bound radioactivity will remain above Histopaque. The aqueous supernatant was removed by gentle aspiration. The tip of the tube that contains the pellet was cut off using a hot scalpel. Bound radioactivity was determined by direct gamma counting at an energy window of 140±15 keV.

[2] = Competition assay with phospholipid liposomes on apoptotic cells; type: binding; details: for binding to apoptotic cells in the presence of PtdE-containing liposomes: increasing concentration of PtdC/PtdE liposomes
Procedure: Preparation of liposomes. Liposomes with the following chemical compositions were made: PtdC (100%), PtdC/PtdE (50/50, w/w), PtdC/PtdS (50/50, w/w), PtdC/PtdG (50/50, w/w). Solid phospholipids were weighed to contain 2 mg for each type of lipids in separate glass test tubes (10×140 mm). One ml of chloroform was used to completely dissolve the phospholipid in each tube. The chloroform was evaporated under a stream of nitrogen where the dried phospholipids formed a thin film of residue on the test tube wall. The samples were thoroughly dried under vacuum overnight. The next morning each sample was re-suspended in 2 ml of HEPES buffer (15 mM HEPES, 120 mM NaCl, pH 7.4) at 45° C. Each suspension was sonicated for 2-5 min at 15 sec each cycle until the mixture turned into an opaque appearance, which indicated the formation of multi-laminar liposomes. The samples were kept on ice until use.
Competition assay. The retention of the binding activity was determined using a competition assay in the presence of PtdE-containing liposomes. PtdC/PtdE liposomes was prepared as described herein. Binding assay was carried out in triplicate in the presence of increasing amount of PtdC/PtdE liposomes, from 1 nM to 10 μM final concentration in 4-fold increments. The radioactivity bound to the cell pellet was determined by gamma counting as described in the precious paragraph. The assay was repeated using liposomes containing other species of closely related phospholipids, including PtdC, PtdG, and PtdS.

[3] = Procedure: Blood half-life and pharmacokinetic studies. The animal protocol used was approved by the Institutional Animal Care and Use Committee under the NIH guideline. Healthy Sprague Dawley rats were injected with radiolabeled Duramycin (2.3 nmole) via the tail vein. At each designated time point, including 0, 1, 5, 15, 30, and 60 min, 50 μl of blood was withdrawn from a pre-installed femoral artery catheter and collected in heparinized tubes. The blood sample was centrifuged at 5000 g, and the radioactivity in the cellular and plasma fractions was measured separately by direct gamma counting using an energy window of 140±15 keV. The data output included total blood activity with time, and the activity associated with blood cells and the plasma, respectively. The blood half-life measurement was conducted in triplets. To analyze the pharmacokinetics of the radiopharmaceutical, 10 μl of the plasma or urine sample was analyzed using HPLC method 2 which involves the physical separation of molecules based upon the matrix-solvent interactions.
[4] = system: acute cardiac cell death; assay: In vivo imaging of acute cardiac cell death, rat model of ischemia and reperfusion
[5] = system: area-at-risk; assay: Spatial and temporal uptake in the area-at-risk after myocardial ischemia and reperfusion; type: in vivo, rat
[6] = system: AMI; assay: Window of detection for AMI, planar imaging and autoradiography; type: in vivo, rat
[7] = system: breast tumor; assay: Imaging in chemical-induced breast cancer model with doxorubicin treatment; type: in vivo, rat
Excerpt: In an experimental example using a chemical-induced breast cancer model in rats, breast tumors were allowed to grow to palpable size prior to doxorubicin treatment (see arrow, FIG. 9B).

[8] = system: heart transplant rejection; assay: Imaging in rat model of heart transplant rejection; type: in vivo; details: days four and six post transplantation
Procedure: In another experimental example, using a rat model of heart transplant rejection, rats were given heart allograft transplants, and other rats were given heart isograft transplants. Four and six days after heart tissue transplantation, the rats were injected with 99mTc-Duramycin and subsequently imaged.

[9] = biological target: rat serum albumin (Rattus norvegicus, UniProt P02770); details: RadioHPLC
[10] = listed as 99mTc-HYNIC-Duramycin^1
[11] = dissected heart tissues, 60 min after injection

Chain of rat serum albumin (P02770 25-608): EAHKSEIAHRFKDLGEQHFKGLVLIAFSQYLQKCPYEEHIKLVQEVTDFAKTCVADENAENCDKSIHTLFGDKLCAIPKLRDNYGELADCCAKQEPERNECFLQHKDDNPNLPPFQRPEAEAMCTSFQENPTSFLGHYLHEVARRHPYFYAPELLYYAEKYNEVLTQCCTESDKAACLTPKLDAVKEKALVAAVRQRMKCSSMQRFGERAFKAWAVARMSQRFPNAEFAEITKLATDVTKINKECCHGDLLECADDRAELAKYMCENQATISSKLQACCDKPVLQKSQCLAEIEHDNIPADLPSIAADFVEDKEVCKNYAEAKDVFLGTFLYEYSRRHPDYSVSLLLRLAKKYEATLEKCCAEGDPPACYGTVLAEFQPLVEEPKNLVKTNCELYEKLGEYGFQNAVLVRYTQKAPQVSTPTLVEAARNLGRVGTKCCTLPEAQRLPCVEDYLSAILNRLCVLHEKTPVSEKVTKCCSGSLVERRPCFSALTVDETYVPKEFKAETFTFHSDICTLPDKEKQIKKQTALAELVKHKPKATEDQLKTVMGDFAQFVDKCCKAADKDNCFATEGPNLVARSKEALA

CC(C)=NNc1ccc(C(=O)NCCCC[C@@H]2NC(=O)[C@@H](N)CS[C@@H](C)[C@H]3NC(=O)[C@H](CC(N)=O)NC(=O)CNC(=O)[C@H]([C@@H](O)C(=O)O)NC(=O)[C@@H]4CSC[C@@H](NC(=O)[C@H](CCC(N)=O)NC2=O)C(=O)N[C@H]2CS[C@@H](C)[C@@H](NC(=O)[C@H](Cc5ccccc5)NC(=O)[C@@H]5CCCN5C(=O)CNC(=O)[C@H](Cc5ccccc5)NC(=O)[C@H](CNCCCC[C@@H](C(=O)O)NC3=O)NC2=O)C(=O)N[C@@H](Cc2ccccc2)C(=O)N[C@@H](C(C)C)C(=O)N4)cn1 [^99mTc-HYNIC-Duramycin, metal not drawn]
binding to apoptotic cells [1]: dramatically enhanced | binding to apoptotic cells [1, 10]: only at background levels | radioactivity uptake in viable cells ([1]; viable Jurkat lymphocytes as control): remained near background | binding to apoptotic cells in the presence of liposomes of other phospholipids ([2]; PtdC, PtdG or PtdS liposomes): unable to competitively reduce | binding to apoptotic cells in the presence of PtdE-containing liposomes [2]: competitively abolished; also recorded: exclusively and competitively diminished | binding to apoptotic cells in the presence of PtdE-containing liposomes [2, 10]: not competitively diminished | radio-HPLC analysis of plasma samples ([3]; after intravenous injection): majority of the injected radioactivity remained as the parent | radioactivity in the blood associated with the plasma fraction ([3]; all time points): greater than 95% | average radioactivity at the infarct site ([4]; at 1 hr post-injection): above 4.0 % ID/g | infarct-to-lung ratio ([4]; at 2 hr after injection (n=3)): 4.8±0.4 | infarct-to-muscle ratio ([4]; at 2 hr after injection (n=3)): 12.2±1.3 | time after injection at which focal uptake was seen at the infarct ([4]; dynamic images, as early as): 10 min | average radioactivity at the infarct site ([4]; rat, in vivo): less than 1.0 % ID/g | retention / washout of radioactivity in the infarct ([4]; rat, in vivo): accompanied with a washout | time uptake in infarct tissues remained persistent without significant washout ([5]; after injection): at least 3 hours | time to approach plateau of uptake ([5]; area-at-risk, after injection): ≤ 10 min | tracer uptake in the ischemic-non-infarct myocardium ([5]; at 180 min): 2.1±0.3 % ID | average infarct-to-normal ratio [5, 11]: 31.9 | average ischemic-to-normal ratio [5, 11]: 11.1 | tracer uptake in the ischemic-non-infarct myocardium ([5]; minimum at 60 min): 1.6±0.6 % ID/g | tracer uptake in the ischemic-non-infarct myocardium ([5]; peak at around 10 min post-injection): 2.7±0.6 % ID/g | radioactivity uptake in the infarcted myocardium ([5]; plateau by 10 min after injection): 4.3±0.7 % ID/g | level (plateau) of uptake in the area-at-risk ([5]; rat myocardial ischemia and reperfusion): ~4 % ID/g | presence of radioactivity in the infarcted tissue reduced (inactivated tracer) ([5]; rat, in vivo): ~60% | time of maximum radioactivity in the infarcted tissue ([5]; rat, in vivo): about 30 min | radioactivity uptake in the normal myocardium ([5]; reflecting residual blood pool signal): low | radioactivity uptake in the infarcted myocardium ([5]; within 3 min after injection): 1.8±0.4 % ID/g | decline of signal-to-background ratio in autoradiographs ([6]; at 24 hr compared with 2 hr post infarction): 32% | decline of signal-to-background ratio in autoradiographs ([6]; at 48 hr compared with 2 hr post infarction): 43% | uptake in treated breast tumor ([7]; after a single cycle of doxorubicin): elevated | cardiac uptake after doxorubicin ([7]; rat, in vivo): also elevated | uptake in heart allografts in contrast to isografts [8]: Markedly elevated | complex formation between the tracer and albumin [9]: did not result in any complex formation
